Our source for the IC50 and EC50 values is ChEMBL document CHEMBL1149799, “Bioactive peroxides as potential therapeutic agents” (Eur J Med Chem, 2008).

What all share (assay type): functional, cell-based
One test concerns P388. Briefly: Cytotoxicity against mouse P388 cells. The conditions noted are these: Mus musculus, P388; for EC50: read-out: ED50 (the source's name).
Another test has as its system KB. Briefly: Cytotoxicity against human KB cells. The note with it: Homo sapiens, KB; for EC50: read-out: ED50 (the source's name).
The next test has as its system HT-29. Briefly: Cytotoxicity against human HT29 cells. The note with it: Homo sapiens, HT-29; for EC50: read-out: ED50 (the source's name).
For another test, the system named is A549. Briefly: Cytotoxicity against human A549 cells. The note with it: Homo sapiens, A549; for EC50: read-out: ED50 (the source's name).

Values after ≈ are worked out from the molar mass of the structure shown.

With `CC/C=C/C(CC)CC(C)CC1(CC)C=C(CC)C(CC(=O)OC)OO1` (stereo not given), it took 0.055 µg/mL (≈ 0.15 µM) to reach half-maximal inhibition in the test on P388 (IC50).

On to `C[C@H](C/C=C/C(C)(C)OO)[C@H]1CC[C@H]2[C@@H]3C[C@@H](O)C4=CC(=O)CC[C@]4(C)[C@H]3CC[C@]12C`, for which the EC50 is 0.28 µg/mL (≈ 0.65 µM) with P388, 0.4 µg/mL (≈ 0.929 µM) in the test on KB, 0.63 µg/mL (≈ 1.46 µM) with HT-29 and 1 µg/mL (≈ 2.32 µM) in the test with A549.

As for `C/C=C/C=C/CCCCCCCCCCCCC[C@@]1(OC)C=C[C@@H](CC(=O)OC)OO1` [XESTIN B], in the test on P388, the 50% inhibitory concentration (IC50) (as a rule, the concentration needed to halve the response being measured) turned out to be 3 µg/mL (≈ 6.87 µM).

Turning to `C=C1C(=O)O[C@H]2C[C@](C)(O)CCC[C@](C)(OO)C/C=C/[C@@]3(C)O[C@H]3C[C@@H]12`, inhibition with P388 was half-maximal at 0.1 µg/mL (≈ 0.273 µM) (IC50).

On to `CCCCCCCC/C=C/C(=O)O[C@@H]1[C@@H](C)[C@@]2(O)[C@H]([C@@H]3C(C)(C)[C@]13OC(C)=O)[C@@H](OO)C(CO)=C[C@]1(O)C(=O)C(C)=C[C@@H]21` [OSTODIN], for which the EC50 in the test with P388 and with KB was at most 4000 µg/mL in each case.

Turning to `C/C=C/C=C/CCCCCCCCCCC[C@]1(OC)C=C[C@H](CC(=O)OC)OO1`, the EC50 in the test with P388 was above 10 µg/mL.

As to `CC(=O)CCCC(C)(C)C(=O)CC/C(C)=C/CC[C@@]1(C)CC[C@H]([C@H](C)C(=O)O)OO1` [AIKUPIKOXIDE A], the IC50 in the test with P388, in the test with HT-29 and in the test with A549 was above 1 µg/mL throughout.

Turning to `C=C(CCC1=C(C)CCCC1(C)C)C(O)CC[C@@]1(C)CC[C@H]([C@H](C)C(=O)O)OO1` (stereo not given in full) [TASNEMOXIDE B], the concentration for half-maximal inhibition (IC50) in the test with P388, with HT-29 and in the test on A549 was above 1 µg/mL throughout.

Regarding `C=C(CCC[C@@]1(C)CC[C@H]([C@H](C)C(=O)OC)OO1)CCC1(O)C(=C)CCCC1(C)C` (stereo not given in full) [TASNEMOXIDE C], the IC50 in the test on P388, with HT-29 and with A549 was above 1 µg/mL in each case.

In the case of `C=C(CCCC(C)(C)O)C(=O)CC[C@@]1(C)CC[C@@H]([C@H](C)C(=O)OC)OO1` [AIKUPIKOXIDE D], the IC50 in the test on P388, with HT-29 and with A549 was above 1 µg/mL throughout.

For the compound `CC(C)(O)/C=C/C[C@@](C)(O)[C@H]1CC[C@@](C)([C@H]2CC[C@H]([C@]3(C)CC[C@H]([C@](C)(O)C/C=C/C(C)(C)OO)O3)O2)O1`, the IC50 with KB worked out at 5.3 µg/mL (≈ 9.8 µM).

In the case of `C=C1CCCC(C)(C)C1(O)CC[C@@]1(C)CC[C@@H]([C@H](C)C(=O)OC)OO1` (stereo not given in full) [AIKUPIKOXIDE B], the IC50 in the test with P388, with HT-29 and in the test on A549 was above 1 µg/mL in each case.

Turning to `C=C1C(=O)O[C@H]2[C@H]1[C@H](OC(C)=O)CC(=C)[C@H](OO)CC[C@@]1(C)O[C@H]21` [PEROXYFEROLIDE], the EC50 in the test on KB is 0.29 µg/mL (≈ 0.857 µM).

On to `COC(=O)[C@@H](C)[C@@H]1CC[C@](C)(CCC(=O)C(C)(C)CCCC(C)=O)OO1` [DIACARPEROXIDE B], for which the half-inhibitory concentration (IC50) in the test on P388, in the test on HT-29 and in the test on A549 was above 1 µg/mL in each case.

As for `CC1=C(CCC(C)(O)/C=C/C[C@@]2(C)CC[C@H]([C@H](C)C(=O)O)OO2)C(C)(C)CCC1` (stereo not given in full) [TASNEMOXIDE A], the IC50 with P388, with HT-29 and in the test with A549 was above 1 µg/mL throughout.

As for `COc1cccc2c1C(=O)c1c(O)c3c(c(O)c1C2=O)C[C@@](O)(C(=O)CO)C[C@@H]3O[C@H]1C[C@H](N)[C@H](O)[C@H](C)O1` [DOXORUBICIN], inhibition in the test with A549 was half-maximal at 0.002 µg/mL (≈ 0.00368 µM) (IC50).

In the test on P388, `C/C=C/C=C/CCCCCCCCCCCCC[C@]1(OC)C=C[C@@H](CC(=O)OC)OO1` [XESTIN A] had an IC50 of 0.3 µg/mL (≈ 0.687 µM).

With `COC(=O)C[C@@]1(C)C[C@](C)(CC(C)CCCCCCCCc2ccccc2)OO1` (stereo not given in full) [EPIPLAKINIC ACID E], the values for the IC50 in the test with P388 and in the test on A549 were 2 µg/mL (≈ 4.94 µM) and 2.5 µg/mL (≈ 6.18 µM), respectively.

As for `C=C1CC[C@H](OO)C(=C)CCC2=C(C(C)C)C(=O)C[C@]2(C)CC1=O`, the results for the EC50 in the test with P388, in the test with HT-29 and in the test on A549 were 0.052 µg/mL (≈ 0.156 µM), 0.31 µg/mL (≈ 0.932 µM) and 0.56 µg/mL (≈ 1.68 µM), respectively.
